Laboratory results: ChEMBL document CHEMBL5728742, “Pyrrolo-pyridine derivative compound, method for preparing same, and pharmaceutical composition containing same as active ingredient for prevention or treatment of protein kinase-related diseases” (2021)

Biological target: Dual specificity tyrosine-phosphorylation-regulated kinase 1A (Homo sapiens, UniProt Q13627)
Assay: Then, DYRK1A kinase was added thereto, followed by mixing well. Each compound of Examples was added thereto by using acoustic technology (Echo550; nanoliter range). […] After reacting at room temperature for 2 hours, spotting was performed on P81 exchange paper. Upon completion of the reaction, kinase activity was detected using a filter-binding method.

IC50: > 100 nM
Structure (SMILES): CCNc1cc(Nc2cc(F)c(C(=O)NC3CCN(C)CC3)cc2OC)nc2[nH]cc(C(F)(F)F)c12
